Read-outs that look alike come from different tables or passages of the source.
Legend:
[1] = system: Cdk1 and Cdk2 targets (Rb, Cdc6, PP1a); experiment: Immunoblot of Cdk1/Cdk2-dependent targets, HaCaT cells; assay type: cell-based, human; details: extended exposure (18 hrs)
Method: Immunoblots of total proteins from synchronized HaCaT cells treated with compounds at time of release (0 hr; beginning of G1 phase) and collected after 18 hrs of exposure. (FIG. 5A) DDK-dependent phosphorylation sites on Mcm2 were analyzed with phospho-specific antibodies. (FIG. 5B) Cdk1- and Cdk2-dependent targets (Rb, Cdc6, and PP1α) were analyzed with phospho-specific antibodies.

[2] = system: T1, human CMG helicase (hCMG); details: role: substrate, cited from earlier work
T1 construct: made in house; host or cells: High Five insect cells, baculovirus (11 viruses co-infected)
T1 sequence (P49736 whole entry): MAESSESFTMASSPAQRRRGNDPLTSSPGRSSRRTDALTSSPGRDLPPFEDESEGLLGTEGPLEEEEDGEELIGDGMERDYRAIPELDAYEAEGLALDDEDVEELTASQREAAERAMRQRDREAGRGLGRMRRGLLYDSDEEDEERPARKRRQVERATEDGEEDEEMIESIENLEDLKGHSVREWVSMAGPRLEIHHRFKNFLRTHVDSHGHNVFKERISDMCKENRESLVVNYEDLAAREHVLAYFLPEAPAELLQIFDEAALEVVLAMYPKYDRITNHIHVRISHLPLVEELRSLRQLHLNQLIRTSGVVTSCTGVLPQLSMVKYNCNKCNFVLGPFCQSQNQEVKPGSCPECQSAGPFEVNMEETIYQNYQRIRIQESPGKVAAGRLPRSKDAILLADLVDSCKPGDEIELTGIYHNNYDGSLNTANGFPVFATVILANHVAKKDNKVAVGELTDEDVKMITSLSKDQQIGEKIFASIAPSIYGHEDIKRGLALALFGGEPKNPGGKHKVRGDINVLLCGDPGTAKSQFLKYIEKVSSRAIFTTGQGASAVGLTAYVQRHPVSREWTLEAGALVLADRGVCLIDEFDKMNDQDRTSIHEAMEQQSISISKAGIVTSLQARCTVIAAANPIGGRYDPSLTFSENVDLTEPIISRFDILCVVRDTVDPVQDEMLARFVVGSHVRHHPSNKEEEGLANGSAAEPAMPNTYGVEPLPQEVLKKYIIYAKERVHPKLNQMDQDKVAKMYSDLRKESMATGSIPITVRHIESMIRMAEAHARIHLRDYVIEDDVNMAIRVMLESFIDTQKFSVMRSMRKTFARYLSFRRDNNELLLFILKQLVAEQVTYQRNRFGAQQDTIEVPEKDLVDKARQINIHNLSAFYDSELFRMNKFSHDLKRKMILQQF
T1 sequence (P25205 whole entry, further chain): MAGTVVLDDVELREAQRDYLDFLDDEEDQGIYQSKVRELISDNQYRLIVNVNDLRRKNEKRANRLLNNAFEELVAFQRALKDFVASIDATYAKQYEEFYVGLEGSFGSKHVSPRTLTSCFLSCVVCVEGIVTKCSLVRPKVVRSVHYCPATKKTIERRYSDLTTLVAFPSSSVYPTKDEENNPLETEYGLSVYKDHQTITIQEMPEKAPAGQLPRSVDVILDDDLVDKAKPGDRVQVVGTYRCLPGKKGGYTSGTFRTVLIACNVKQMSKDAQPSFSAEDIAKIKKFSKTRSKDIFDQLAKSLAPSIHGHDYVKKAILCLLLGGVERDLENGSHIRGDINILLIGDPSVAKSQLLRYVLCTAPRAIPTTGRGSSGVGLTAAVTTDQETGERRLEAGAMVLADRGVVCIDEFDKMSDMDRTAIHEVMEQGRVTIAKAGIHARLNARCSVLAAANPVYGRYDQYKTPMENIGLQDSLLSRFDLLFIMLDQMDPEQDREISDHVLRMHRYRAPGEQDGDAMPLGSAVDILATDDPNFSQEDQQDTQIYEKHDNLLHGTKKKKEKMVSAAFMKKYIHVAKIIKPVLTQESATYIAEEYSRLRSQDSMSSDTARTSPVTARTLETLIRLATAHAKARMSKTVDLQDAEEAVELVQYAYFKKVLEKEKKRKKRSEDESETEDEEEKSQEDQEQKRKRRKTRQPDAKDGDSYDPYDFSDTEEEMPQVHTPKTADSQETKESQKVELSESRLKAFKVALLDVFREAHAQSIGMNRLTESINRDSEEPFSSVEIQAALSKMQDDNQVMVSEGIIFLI
T1 sequence (P33991 whole entry, further chain): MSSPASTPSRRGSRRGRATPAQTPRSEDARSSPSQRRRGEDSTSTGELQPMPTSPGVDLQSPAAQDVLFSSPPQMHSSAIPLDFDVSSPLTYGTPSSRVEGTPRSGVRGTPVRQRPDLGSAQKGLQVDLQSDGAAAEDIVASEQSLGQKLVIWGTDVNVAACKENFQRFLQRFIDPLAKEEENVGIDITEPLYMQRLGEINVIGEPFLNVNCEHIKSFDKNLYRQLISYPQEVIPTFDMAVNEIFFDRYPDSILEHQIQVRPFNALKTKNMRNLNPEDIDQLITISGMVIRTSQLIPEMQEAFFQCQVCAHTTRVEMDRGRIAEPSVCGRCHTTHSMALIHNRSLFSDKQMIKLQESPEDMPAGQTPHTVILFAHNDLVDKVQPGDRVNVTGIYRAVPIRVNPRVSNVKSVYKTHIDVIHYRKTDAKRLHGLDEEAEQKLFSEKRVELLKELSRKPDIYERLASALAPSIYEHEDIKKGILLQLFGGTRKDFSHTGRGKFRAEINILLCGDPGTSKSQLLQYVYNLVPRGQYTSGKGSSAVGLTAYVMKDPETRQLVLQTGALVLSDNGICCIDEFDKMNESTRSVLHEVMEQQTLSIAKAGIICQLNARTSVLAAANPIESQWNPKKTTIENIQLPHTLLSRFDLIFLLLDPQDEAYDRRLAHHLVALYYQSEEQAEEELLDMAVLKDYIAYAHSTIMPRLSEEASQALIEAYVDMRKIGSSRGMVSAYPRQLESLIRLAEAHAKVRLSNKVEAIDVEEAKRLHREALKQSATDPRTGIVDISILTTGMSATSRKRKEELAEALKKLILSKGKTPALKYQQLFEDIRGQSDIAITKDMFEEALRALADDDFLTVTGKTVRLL
T1 sequence (P33992 whole entry, further chain): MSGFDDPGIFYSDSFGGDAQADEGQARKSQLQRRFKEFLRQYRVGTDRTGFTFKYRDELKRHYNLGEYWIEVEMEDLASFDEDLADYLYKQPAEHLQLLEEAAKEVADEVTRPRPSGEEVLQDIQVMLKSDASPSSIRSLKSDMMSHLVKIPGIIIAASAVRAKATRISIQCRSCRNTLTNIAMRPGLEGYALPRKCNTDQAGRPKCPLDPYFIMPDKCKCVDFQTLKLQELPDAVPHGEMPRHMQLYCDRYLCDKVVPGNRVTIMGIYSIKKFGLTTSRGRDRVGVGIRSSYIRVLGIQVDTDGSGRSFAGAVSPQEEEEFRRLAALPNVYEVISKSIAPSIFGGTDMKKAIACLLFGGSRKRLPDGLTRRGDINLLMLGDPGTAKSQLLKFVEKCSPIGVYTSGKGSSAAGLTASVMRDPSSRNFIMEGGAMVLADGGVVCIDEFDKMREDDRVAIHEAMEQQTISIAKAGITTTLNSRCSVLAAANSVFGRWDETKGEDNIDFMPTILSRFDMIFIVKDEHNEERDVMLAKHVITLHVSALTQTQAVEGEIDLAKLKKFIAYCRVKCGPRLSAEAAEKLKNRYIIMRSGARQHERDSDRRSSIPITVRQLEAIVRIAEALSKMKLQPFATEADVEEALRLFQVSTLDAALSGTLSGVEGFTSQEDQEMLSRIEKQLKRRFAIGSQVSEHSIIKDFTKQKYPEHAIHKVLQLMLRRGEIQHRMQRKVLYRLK
T1 sequence (Q14566 whole entry, further chain): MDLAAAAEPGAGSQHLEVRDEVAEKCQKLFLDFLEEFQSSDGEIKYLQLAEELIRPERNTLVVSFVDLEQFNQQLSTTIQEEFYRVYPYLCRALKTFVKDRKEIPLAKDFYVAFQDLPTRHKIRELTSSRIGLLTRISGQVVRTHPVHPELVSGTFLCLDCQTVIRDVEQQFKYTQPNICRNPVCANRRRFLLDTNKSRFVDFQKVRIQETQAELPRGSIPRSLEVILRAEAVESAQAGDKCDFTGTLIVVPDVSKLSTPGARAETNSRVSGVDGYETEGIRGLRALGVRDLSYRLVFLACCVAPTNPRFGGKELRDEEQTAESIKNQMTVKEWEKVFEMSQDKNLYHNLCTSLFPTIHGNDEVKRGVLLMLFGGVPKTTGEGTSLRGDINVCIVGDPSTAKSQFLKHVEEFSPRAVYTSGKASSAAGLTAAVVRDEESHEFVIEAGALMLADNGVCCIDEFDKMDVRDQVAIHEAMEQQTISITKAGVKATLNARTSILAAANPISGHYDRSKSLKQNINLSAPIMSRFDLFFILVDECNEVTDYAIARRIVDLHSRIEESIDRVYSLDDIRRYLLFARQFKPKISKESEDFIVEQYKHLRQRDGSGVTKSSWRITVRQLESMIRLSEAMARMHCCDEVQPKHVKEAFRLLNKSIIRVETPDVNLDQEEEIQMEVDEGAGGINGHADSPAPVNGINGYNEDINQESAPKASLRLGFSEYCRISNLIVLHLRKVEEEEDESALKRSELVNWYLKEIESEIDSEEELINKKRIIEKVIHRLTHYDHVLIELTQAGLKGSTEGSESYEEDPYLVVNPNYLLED
T1 sequence (P33993 whole entry, further chain): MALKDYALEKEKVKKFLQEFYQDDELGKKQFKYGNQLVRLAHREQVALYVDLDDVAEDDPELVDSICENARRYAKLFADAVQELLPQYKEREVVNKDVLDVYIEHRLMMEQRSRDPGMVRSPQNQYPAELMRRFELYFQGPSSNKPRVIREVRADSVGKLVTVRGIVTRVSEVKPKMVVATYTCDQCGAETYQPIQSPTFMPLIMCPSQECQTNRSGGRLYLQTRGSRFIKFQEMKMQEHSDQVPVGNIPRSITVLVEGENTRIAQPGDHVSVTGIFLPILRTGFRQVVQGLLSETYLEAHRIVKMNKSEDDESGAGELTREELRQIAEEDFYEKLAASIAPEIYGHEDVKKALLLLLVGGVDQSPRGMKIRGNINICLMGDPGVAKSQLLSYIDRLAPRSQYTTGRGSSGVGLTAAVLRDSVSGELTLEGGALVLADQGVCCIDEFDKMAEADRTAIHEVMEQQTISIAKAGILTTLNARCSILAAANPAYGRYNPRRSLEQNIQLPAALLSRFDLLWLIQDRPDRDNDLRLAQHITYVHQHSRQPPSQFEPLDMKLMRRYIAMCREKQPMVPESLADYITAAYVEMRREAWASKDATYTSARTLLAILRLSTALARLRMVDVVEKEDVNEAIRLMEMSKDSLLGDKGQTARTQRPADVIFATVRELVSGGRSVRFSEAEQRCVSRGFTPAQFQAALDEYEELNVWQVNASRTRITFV

[3] = system: T1, human CMG helicase (hCMG); experiment: hCMG helicase fork-unwinding (strand displacement) assay; assay type: biochemical
Method: (§1) The human CMG helicase was purified following the established and validated protocol of Hurwitz and colleagues(19,20), with minor modifications. A detailed description of the approach is shown here, to allow for comparisons to the methods described by the Hurwitz group.
(§2) High Five insect cells (2-3 million cells/ml, 1.5 L), were in cultured in a shaking incubator at 27° C. in suspension with ESF921 serum free medium (Expression Systems, CA; cat. #96-001-01), then co-infected for 60 hrs with 11 baculoviruses expressing human 6His2Flag-Cdc45, the human MCM hexamer (Mcm2, Mcm3, Mcm4, Mem5, Mcm6, Mcm7), and human GINS (GST-Sld5, Psf3, Psf2, and Psf1). Each virus was infected at an MOI of ~10 from individual virus stocks. Infected cells were harvested by centrifugation at 650×g for 5 min at 4° C., washed with cold PBS, frozen on dry ice, and stored at −80° C. until use. The cell pellet (~20 mL) was thawed on ice, resuspended in 45 ml Hypotonic Buffer [20 mM Hepes-NaOH (pH 7.5), 5 mM KCl, 1.5 mM MgCl2] with protease inhibitors (1 mM [COMPOUND LEFT OUT], 1 mM Benzamidine, 0.15 μM Aprotinin, 4 μM Leupeptin, and 1 μM Antipain), and kept on ice for 10 min before lysing by Dounce homogenization (tight fitting, 60 strokes). The cell extract was adjusted to 0.42 M potassium acetate and centrifuged at 43,000×g for 1 hr at 4° C. The cleared lysate was mixed with 0.75 ml glutathione beads (cat. #17-0756-05; GE Healthcare) pre-equilibrated with FEQ buffer [20 mM Hepes-NaOH (pH 7.5), 0.42 M potassium acetate, 5 mM KCl, 1.5 mM MgCl2] and incubated by rotation at 4° C. overnight. Following centrifugation at 290×g at 4° C., the bound glutathione beads were washed four times (15 min each wash) with 40 ml of FW buffer [20 mM Hepes-NaOH (pH 7.5), 0.42 M potassium acetate, 1 mM DTT, 1 mM EDTA, 0.01% NP40, 10% glycerol (vol/vol) with protease inhibitors as above] containing protease inhibitors (as above). Bound proteins were eluted at 4° C. three times (1 hr each elution) with 3.5 ml Q buffer [20 mM Hepes-NaOH (pH 7.5), 1 mM DTT, 1 mM EDTA, 0.01% NP40, 10% glycerol (vol/vol), and protease inhibitors as above] containing 0.15 M potassium acetate and 20 mM reduced glutathione. The eluted fractions were combined and applied to a HiTrap Q-Sepharose FF column (HiTrap Q FF 1 mL, cat. #17505301, Cytiva), pre-equilibrated 3× with 5 ml of Q buffer containing 0.15 M, 0.75 M, 0.15M potassium acetate, in sequence. The Q-Sepharose FF column was washed with 10 ml of FW buffer containing protease inhibitors (as above). The proteins were eluted with 10 ml of Q buffer containing 0.75 M potassium acetate. The eluted fraction was mixed with 0.15 ml of anti-Flag M2 affinity gel/beads and incubated while rotating at 4° C. overnight. After centrifugation at 290×g for 5 min at 4° C., the beads were washed three times with 10 ml PreScission buffer [50 mM Tris-HCl (pH 7.5), 0.15 M NaCl, 1 mM DTT, 1 mM EDTA] for 15 min at 4° C., and eluted at 4° C. three times (1 hr each elution) with 0.2 ml PreScission enzyme buffer containing 0.2 mg/ml 3×-Flag peptides. The combined eluates were incubated with 20 Units of PreScission Protease (GE Healthcare) and 0.1 mL glutathione beads for 4 hr at 4° C. The supernatant was layered onto a 15-40% glycerol gradient [25 mM Tris-HCl (pH 7.5), 50 mM NaCl, 1 mM DTT, 1 mM EDTA, 0.01% NP40, protease inhibitors as above] in a 5 mL ultra-centrifugation tube and centrifuged at 260,000×g for 14 hr at 4° C. Glycerol fractions (0.15 mL each fraction) were collected from bottom of tube and stored at −80° C. until use. Typically, fractions 6-9 contained complete hCMG (~750-800 kDa) and co-migrated with thyroglobulin.
(§3) Helicase fork-unwinding assays were performed at 37° C. for 1 hr in 20 μL reaction volumes using 2-4 μl of hCMG (~15-30 fmol), in a buffer consisting of 25 mM Hepes-NaOH (pH 7.5), 5 mM NaCl, 0.5 mM ATP, 10 mM magnesium acetate, 1 mM DTT, 0.1 mg/ml bovine serum albumin (BSA), and ~10 fmol of radiolabeled DNA forks (20). […]

[4] = system: solid tumor cell lines (NCI-60 set); details: cited from earlier work
[5] = system: T1, human CMG helicase (hCMG); experiment: hCMG ATPase activity, FP ADP^2 Transcreener assay; assay type: biochemical; details: primary FP ATPase assay
Method: The fluorescent-polarization (FP) ADP-sensing assays were performed using the Transcreener® ADP^2 FP assay kit (cat #3010-1K, Bellbrook Labs). For hCMG inhibitor screening, assays were performed at 37° C. for 1 hr in 10 μl reactions in a 384-well plate (cat. #4514, Corning) using 2 μL of hCMG (~15 fmol), 25 mM Hepes-NaOH (pH 7.5), 10 mM NaCl, 0.5 mM ATP, 10 mM magnesium acetate, 1 mM DTT, 0.1 mg/ml BSA, and DNA fork substrates. […] Selected inhibitors or samples from a chemical library were added into the reactions when conducting the screening or testing inhibitor effectiveness. The NCI Diversity Set VI chemical library was obtained from the National Cancer Institute (Bethesda, MD).
The window of sensitivity for the ADP-sensing assays is determined by setting up two 10 μL control samples without any added hCMG helicase: a Low-FP mixture (4 nM ADP Alexa Fluor-633 Tracer alone) and a High-FP mixture (4 nM ADP Alexa Fluor-633 Tracer plus patented anti-ADP^2 Antibody). The amount of ADP^2 Antibody used had to be adjusted to account for the use of 500 μM ATP in our hCMG assays, versus 10 μM ATP in enzyme reactions typically assessed with standard kits prepared by BellBrook Labs. […] This was done according to the manufacturer by performing a titration with increasing ADP^2 Antibody, fixed 4 nM ADP Alexa Fluor-633 Tracer, and 500 μM ATP to determine the ~EC80-85 for millipol (mP) changes, which determined the optimal ADP^2 Antibody concentration to use as 0.64 mg/ml (FIG. 9A). Samples are read with a Perkin Elmer Envision II plate reader with optimized Cy5 (far-red) FP-compatible mirror and cubes (cat #2100-8390, Perkin Elmer). The Low-FP sample is the least polarized and gives a low mP reading, while the High-FP sample is the most polarized and gives the highest mP reading. The difference between the Low-FP and High-FP values defines the FP assay window, which is normally in a range of 150-200 mP under ideal conditions for screening purposes. The hCMG helicase hydrolyzes ATP to ADP and decreases the mP reading within this window, with an ideal change (ΔmP) in the FP window of at least 50% to be in a readable range for inhibitor screening (as per manufacturer). Potential hCMG chemical inhibitors reverse this effect and cause the mP readings to increase.
We performed a titration with increasing and decreasing concentrations of ADP and ATP, respectively, to assess the sensitivity of the FP assay in detecting ADP production (FIG. 9B). Consistent with the stated manufacturer predictions, the assay can reliably detect 1-3% changes in ADP production (i.e., 5-15 μM ADP production) in starting concentrations of ATP of 500 μM, with a Z′ efficiency between 0.6-0.8 (determined following manufacturer protocols).
Once the hCMG enzyme reactions are complete, 10 μL of 1× Stop Solution and Detection Buffer (buffer from BellBrook Labs; containing 4 nM ADP Alexa Fluor-633 Tracer plus ADP^2 Antibody) are added to each reaction, and to the High-FP control. The Low-FP control receives 10 μL of 1× Stop Solution and Detection Buffer containing only 4 nM ADP Alexa Fluor-633 Tracer (no Antibody). Samples are incubated at 25° C. for 1 hr, then read in the plate reader. […] Plate readings from these tests of potential positive hits should be similar to that seen with the Low-FP control, or such hits may instead be false-positives.

[6] = system: T2, Nc1ncnc2c1ncn2[C@@H]1O[C@H](COP(=O)(O)OP(=O)(O)OP(=O)(O)O)[C@@H](O)[C@H]1O; experiment: hCMG helicase fork-unwinding (strand displacement) assay; assay type: biochemical, human; details: other: role: substrate
T2 construct: made in house; host or cells: High Five insect cells, baculovirus (11 viruses co-infected)
Method: as §1, §2, §3

O=C(NC1CCNCC1)c1[nH]ncc1NC(=O)c1c(Cl)cccc1Cl [AT7519]
phosphorylation of Cdk2 targets Rb, Cdc6 (S54P) and Cdk1 target PP1a [1]: blocks phosphorylation

Nc1ncnc2c1ncn2[C@@H]1O[C@H](COP(=O)(O)OP(=O)(O)OP(=O)(O)O)[C@@H](O)[C@H]1O [ATP]
ATP hydrolysis rate of the human helicase ([2]; 500 μM ATP): −80 mol-ADP per minute per mol-hCMG
Km ([2]; described by others, read-out: Km for hCMG ATP hydrolysis activity): 625 µM
Vmax of the hCMG ([3]; role: substrate, inhibitor CA1 2.5 μM present): without a change in the Vmax
Km ([3]; role: substrate, no inhibitor, read-out: Km for ATP, fork-unwinding activity): 690 µM

CO[C@@H]1[C@@H](OC(=O)c2ccc(C)[nH]2)[C@@H](O)[C@H](Oc2ccc3c(O)c(NC(=O)c4ccc(O)c(CC=C(C)C)c4)c(=O)oc3c2Cl)OC1(C)C [clorobiocin]
hCMG helicase inhibition in secondary strand-displacement assay ([3]; 500 μM compound): effective hCMG helicase inhibitors
growth suppression of solid tumor cell lines [4]: sensitive to similar low micromolar concentrations
inhibition of hCMG ATP hydrolysis [5]: effective nature of hCMG inhibition

human CMG helicase (hCMG) (Homo sapiens)
Km ([6]; inhibitor CA1 2.5 μM present): 1550 µM
Km ([6]; no inhibitor): 690 µM

Source: US20260306641A1, “HELICASE DEGRADERS” (priority 2023, published 2026)
